The record followed here is ChEMBL document CHEMBL1201862, “PubChem BioAssay data set” (2004).

Some test systems named below: A498; COLO 205; HCT-15; HOP-62; K562; MCF7; MOLT-4; Malme-3M; NCI-H226; NCI-H23; OVCAR-4; OVCAR-5; RXF 393; SK-MEL-5; SN12C; SNB-75; SW-620; U-251; ACHN; SR.
What all share (assay): DTP human tumour cell line panel, 48 h

Structures are written as SMILES.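 Protocol summary: plate cells (96-well), add compound at 5 concentrations, incubate 48 h, interpolate endpoints linearly. Abbreviation: GI50, concentration required for 50% inhibition of growth.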 Active and inactive are the calls of the source. Rule as the data show it: active = GI50 up to about 1.1 µM and inactive = higher.

The term GI50 denotes the concentration giving 50% growth inhibition. For the compound `O=C(O)c1cn2c3c(cc(N4CCN(CCO)CC4)cc3c1=O)SCC2`, the GI50 is > 100 µM (inactive) in the test with A498; > 100 µM (inactive) in the test with COLO 205; > 100 µM in the test with HCT-15; 48.4 µM (inactive) in the test with HOP-62; 65.9 µM (inactive) with K562; 29.7 µM (inactive) in the test with MCF7. The GI50 in the test on MOLT-4 was 53.8 µM (inactive); in the test with Malme-3M, 37.2 µM (inactive); with NCI-H226 it was 63.8 µM (inactive); in the test on NCI-H23, 57.5 µM (inactive); in the test on OVCAR-4 it was > 60.8 µM (inactive); in the test on OVCAR-5 it was > 75.5 µM (inactive). Besides, the GI50 with RXF 393 was > 100 µM (inactive); with SK-MEL-5, > 100 µM (inactive); in the test with SN12C it was 47.1 µM (inactive); with SNB-75, 30.7 µM (inactive); with SW-620 it was > 100 µM (inactive); in the test on U-251, > 95.9 µM (inactive).
As for `C=CC1OC(CCCOC(=O)C(C)(C)C)O[C@@H]1CC` (some centres undefined), the GI50 in the test with A498 was > 100 µM (inactive); in the test with ACHN it was > 100 µM (inactive); in the test with COLO 205, > 100 µM (inactive); in the test with HCT-15, > 100 µM; in the test with HOP-62 it was > 100 µM (inactive); with MCF7 it was > 100 µM (inactive). In addition, the GI50 with MOLT-4, in the test on NCI-H226, in the test with NCI-H23, with OVCAR-4, in the test with OVCAR-5 and with SK-MEL-5 was > 100 µM (inactive) throughout. Moreover, the GI50 in the test on SN12C, in the test on SNB-75, with SR, in the test with SW-620 and in the test on U-251 was > 100 µM (inactive) each time.
On to `CCN1c2ccccc2NC(=S)c2c(-c3ccccc3)n[nH]c21`, for which the GI50 was 37.2 µM (inactive) with ACHN; 31.5 µM (inactive) in the test on COLO 205; 23 µM in the test on HCT-15; 17.6 µM (inactive) in the test with K562; 22.4 µM (inactive) with MCF7; 17 µM (inactive) in the test with MOLT-4. Further, the GI50 in the test with NCI-H23 is 26.5 µM (inactive); in the test with OVCAR-4, 36.6 µM (inactive); with OVCAR-5, 56.4 µM (inactive); with RXF 393, 27.7 µM (inactive); in the test on SK-MEL-5 it was 20.3 µM (inactive); in the test on SN12C, 43.5 µM (inactive). In addition, the GI50 in the test on SNB-75 is 55.7 µM (inactive); in the test with SR, 24.7 µM (inactive); with SW-620, 27 µM (inactive); in the test on U-251, 20.9 µM (inactive).
In the case of `Nc1ccn(C2OC(CO)C(O)C2(F)F)c(=O)n1` (centres undefined), the GI50 in the test on A498 was 0.186 µM (active); in the test with COLO 205, 0.82 µM (active); in the test with HCT-15 it was 0.735 µM; with HOP-62 it was 0.0867 µM (active); with K562 it was 0.325 µM (active); in the test on MCF7, 0.0847 µM (active). For the same compound, the concentration for 50% growth inhibition (GI50) in the test on MOLT-4 was 0.091 µM (active); with Malme-3M it was 0.63 µM (active); in the test with NCI-H226, 0.706 µM (active); in the test on NCI-H23 it was 0.0391 µM (active); in the test on OVCAR-5 it was 0.547 µM (active); in the test on RXF 393 it was 0.214 µM (active). Moreover, the GI50 in the test on SK-MEL-5 is 0.436 µM (active); in the test on SN12C, 0.261 µM (active); in the test with SR, 0.158 µM (active); with SW-620, 0.759 µM (active); with U-251, 0.162 µM (active).
As to `Cc1cccc(C(O)c2ccccn2)c1O` (centres undefined), the GI50 in the test with ACHN was > 100 µM (inactive); with COLO 205, > 100 µM (inactive); in the test on HCT-15, 83.2 µM; with HOP-62 it was > 100 µM (inactive); with K562, > 100 µM (inactive); in the test with MCF7 it was > 100 µM (inactive). Moreover, the GI50 in the test on MOLT-4, in the test on Malme-3M, in the test on NCI-H226, with NCI-H23, in the test with OVCAR-5 and with RXF 393 was > 100 µM (inactive) throughout. Moreover, the GI50 in the test on SK-MEL-5, in the test with SN12C, in the test on SNB-75, in the test with SR, in the test on SW-620 and in the test with U-251 was > 100 µM (inactive) in each case.
For `CN1C[C@H]2[C@@H](C1=O)[C@H](c1ccc([N+](=O)[O-])cc1)ON2C`, the GI50 is > 100 µM (inactive) in the test with ACHN; > 100 µM (inactive) in the test with COLO 205; > 100 µM in the test with HCT-15; > 100 µM (inactive) in the test with HOP-62; > 100 µM (inactive) in the test on K562; > 100 µM (inactive) with MCF7. Also, the GI50 in the test on MOLT-4, in the test with NCI-H226, in the test with NCI-H23, with OVCAR-4, in the test with OVCAR-5 and in the test on SK-MEL-5 was > 100 µM (inactive) in each case. The GI50 in the test on SN12C, in the test with SR, in the test on SW-620 and in the test on U-251 was > 100 µM (inactive) in each case.
On to `Cc1ccc(C2=C(C#N)C(N)OC3=C2COc2ccccc23)cc1` (centres undefined), for which the GI50 with A498 is 24.1 µM (inactive); in the test with ACHN it was 35.2 µM (inactive); in the test with COLO 205, > 100 µM (inactive); in the test on HCT-15, > 100 µM; with HOP-62, 15.6 µM (inactive); in the test on K562, 80.7 µM (inactive). The GI50 is > 100 µM (inactive) in the test on MCF7; 16.6 µM (inactive) with MOLT-4; 22.8 µM (inactive) in the test with Malme-3M; > 100 µM (inactive) in the test with NCI-H226; 43.5 µM (inactive) in the test on NCI-H23; 13.5 µM (inactive) in the test with OVCAR-4. In addition, the GI50 is 2.4 µM (inactive) with OVCAR-5; 63 µM (inactive) in the test on SK-MEL-5; 18.6 µM (inactive) in the test with SN12C; 32.6 µM (inactive) in the test with SR; > 100 µM (inactive) in the test on SW-620; 19.5 µM (inactive) in the test on U-251.
Turning to `OC(c1cccnc1Cl)c1nc2ccccc2c2ccnc(Cl)c12` (centres undefined), the GI50 in the test with A498 was 3.23 µM (inactive); in the test with ACHN, 9.91 µM (inactive); with COLO 205 it was 3.38 µM (inactive); in the test with HCT-15, 3.04 µM; in the test with HOP-62 it was 2.15 µM (inactive); in the test on K562, 1.4 µM (inactive). For the same compound, the GI50 in the test with MCF7 was 3.04 µM (inactive); with MOLT-4, 3.67 µM (inactive); in the test with Malme-3M it was 6.92 µM (inactive); in the test on NCI-H23, 20.5 µM (inactive); in the test with OVCAR-4, 27.5 µM (inactive); with OVCAR-5 it was 9.51 µM (inactive). The GI50 is 4.12 µM (inactive) in the test on RXF 393; 3.46 µM (inactive) with SK-MEL-5; 3.6 µM (inactive) in the test on SN12C; 15 µM (inactive) in the test on SNB-75; 0.396 µM (active) in the test with SR; 3.06 µM (inactive) in the test on SW-620. In addition, the GI50 in the test on U-251 is 4.18 µM (inactive).
As for `O=S(=O)(O)c1ccc(/N=N\c2ccc(/N=N\c3ccc(/C=C/c4ccc(/N=[N+](/[O-])c5ccc(/C=C/c6ccc(/N=N/c7ccc(/N=N\c8ccc(S(=O)(=O)O)cc8)cc7)cc6S(=O)(=O)O)c(S(=O)(=O)O)c5)cc4S(=O)(=O)O)c(S(=O)(=O)O)c3)cc2)cc1`, the GI50 in the test on A498 is > 100 µM (inactive); with COLO 205, > 100 µM (inactive); with HCT-15 it was > 100 µM; in the test with HOP-62, > 100 µM (inactive); with K562 it was > 100 µM (inactive); with MCF7 it was > 100 µM (inactive). Besides, the GI50 with MOLT-4 was > 100 µM (inactive); with Malme-3M it was > 100 µM (inactive); in the test on NCI-H226, > 67.8 µM (inactive); with NCI-H23, > 100 µM (inactive); with OVCAR-4 it was > 87.9 µM (inactive); in the test on OVCAR-5, > 100 µM (inactive). Also, the GI50 was > 100 µM (inactive) in the test with RXF 393; > 100 µM (inactive) in the test with SK-MEL-5; > 100 µM (inactive) with SN12C; 69.7 µM (inactive) in the test on SNB-75; > 100 µM (inactive) with SW-620; > 100 µM (inactive) in the test on U-251.
Take `CC(=O)OC[C@H]1[C@@H]2C(CC[C@]13CO3)OC(=O)CC(C)[C@]2(C)CCc1ccoc1` (some centres undefined): the GI50 with A498 is > 100 µM (inactive); in the test on ACHN, > 100 µM (inactive); in the test on COLO 205, > 100 µM (inactive); with HCT-15, > 100 µM; in the test on HOP-62, > 100 µM (inactive); in the test on K562, > 100 µM (inactive). Besides, the GI50 in the test on MCF7, in the test on MOLT-4, in the test with Malme-3M, in the test on NCI-H226, in the test on NCI-H23 and with OVCAR-4 was > 100 µM (inactive) throughout. In addition, the GI50 in the test with OVCAR-5, in the test with RXF 393, in the test with SK-MEL-5, in the test with SN12C, with SR and in the test on SW-620 was > 100 µM (inactive) throughout. The GI50 in the test with U-251 was > 100 µM (inactive).
Regarding `O=Cc1c(Cn2ccnc2)c2cc([N+](=O)[O-])ccc2n1Cc1ccccc1`, the GI50 in the test with A498 is > 93.3 µM (inactive); with COLO 205, > 100 µM (inactive); in the test on HCT-15, > 100 µM; in the test with HOP-62, 27.3 µM (inactive); with K562 it was 97.1 µM (inactive); with MCF7 it was 75.3 µM (inactive). For the same compound, the GI50 in the test with MOLT-4 was > 100 µM (inactive); in the test on Malme-3M, > 100 µM (inactive); with NCI-H226, > 100 µM (inactive); in the test on NCI-H23 it was > 100 µM (inactive); in the test on OVCAR-4, > 100 µM (inactive); in the test with OVCAR-5, > 90.6 µM (inactive). In addition, the GI50 is > 100 µM (inactive) in the test on RXF 393; 99.1 µM (inactive) with SK-MEL-5; > 86.5 µM (inactive) in the test with SN12C; > 100 µM (inactive) in the test on SNB-75; > 100 µM (inactive) with SW-620; 37.3 µM (inactive) in the test on U-251.
